# How the values were obtained:
# [1] = test system: human skin fibroblasts; assay: short-term studies on cultured human skin fibroblasts (attachment, survival, growth, apoptosis); assay type: cell-based
# Description: Several short-term, preliminary studies of the effect of 6-furfurylamino-9-(2-tetrahydropyranyl)purine on cultured human skin fibroblasts cells have been carried out. The initial study involved the addition of 6-furfurylamino-9-(2-tetrahydropyranyl)purine (40 to 400 μM) to human skin fibroblasts cells in a culture. The percentage of attachment of the cells to the surface of the culture flask was not affected after 6 hours of treatment. In the remaining experiments reported in this example, the 6-furfurylamino-9-(2-tetrahydropyranyl)purine was added directly to the culture medium at the same time as the cells were seeded.
# A wider range of concentrations (from 0.01 to 500 μM) was tested for determining the effects of 6-furfurylamino-9-(2-tetrahydropyranyl)purine on the survival of cultured human skin fibroblasts after 3 days of treatment.
# The effect of 6-furfurylamino-9-(2-tetrahydropyranyl)purine (0 to 400 μM) treatment on short term growth of young human fibroblasts was also evaluated. Cell growth was similar in untreated samples and in samples treated with 40, 80, and 200 μM 6-furfurylamino-9-(2-tetrahydropyranyl)purine. […] Similar experiments were carried out to determine the extent of apoptosis and beta-galactosidase staining in 6-furfurylamino-9-(2-tetrahydropyranyl)purine-treated and untreated cells.
# Based on these studies, 6-furfurylamino-9-(2-tetrahydropyranyl)purine appears to be well tolerated by young and senescent human skin fibroblasts and to have positive effects in terms of reversion of actin pattern and morphology of senescent cells to relatively younger characteristics.
# [2] = test system: senescent human skin fibroblasts; assay: treatment of senescent human skin fibroblasts (cell number, actin staining, morphology); assay type: cell-based
# Description: The effect of 6-furfurylamino-9-(2-tetrahydropyranyl)purine on senescent cells was also examined. An equal number of senescent cells were seeded in separate flasks and then treated with different concentrations of 6-furfurylamino-9-(2-tetrahydropyranyl)purine (0 to 400 μM). Cell numbers were determined after 7 and 14 days of treatment using a Coulter counter after trypsinisation and resuspension of the cells.
# Late passage senescent cells with a life span of more than 95% were also treated with different concentrations of 6-furfurylamino-9-(2-tetrahydropyranyl)purine (0 to 200 μM) to assess age-related changes. The actin staining patterns were examined after three days. […] Less polymerized and diffused patterns of actin staining are generally associated with youthful characteristics of human fibroblasts. Thus, 6-furfurylamino-9-(2-tetrahydropyranyl)purine appears to revert some of the age-related changes in actin organization in senescent cells.
# Senescent human skin fibroblasts were also treated with 6-furfurylamino-9-(2-tetrahydropyranyl)purine (0 to 400 μM) and evaluated for reversion of age-related changes. There were significant differences in the appearance of the cells after 7 and 30 days of treatment. […] Even at higher concentrations (200 and 400 μM), the 6-furfurylamino-9-(2-tetrahydropyranyl)purine-treated cells appeared to be smaller and have less intracellular debris as compared untreated cells.
# [3] = test system: Salmonella typhimurium histidien auxotrophs TA98 and TA100; assay: Ames Test; assay type: cell-based; conditions: 2.5 to 5000 μg/plate; presence and absence of rat liver S9
# Description: Tests were carried out using DMSO as solvent and dose levels of 6-furfurylamino-9-(2-tetrahydropyranyl)purine at 2.5, 5.0, 15, 50, 500, 1500, and 5000 μg/plate based upon standard protocol and procedures (Ames et al., Mutation Research, 31, 347-364 (1975); Maron et al., Mutation Research, 113, 173-215 (1983)).
# [4] = test system: Chinese hamster ovary (CHO) cells; assay: In Vitro Chromosome Aberration Screening Assay; assay type: cell-based; conditions: 0.272 to 272 μg/ml; absence and presence of S9
# Description: 6-Furfurylamino-9-(2-tetrahydropyranyl)purine was tested in the chromosome aberration screening assay using Chinese hamster ovary (CHO) cells in both the absence and presence of an Acroclor-induced S9 activation system to evaluate its clastogenic potential. DMSO was used as the solvent and the dose rate ranged from 0.272 to 272 μg/ml.
# [5] = test system: chorioallantoic membrane of White Leghorn eggs; assay: Chorioallantoic Membrane Vascular Assay (ocular irritation)
# Description: The chorioallantoic membrane of White Leghorn eggs, incubated for 14 days, were dosed with 40 μl of the test compound (and three lower concentrations in distilled water) and then further incubated for about 30 minutes at which time the chorioallantoic membrane was examined for vascular hemorrhage, capillary injection, and/or the presence of ghost vessels.
# [6] = test system: normal, human-derived epidermal keratinocytes (NHEK); assay: Epiderm MTT Viablity Assay; assay type: cell-based
# Description: Using MatTek Corporation's EpiDerm™ System (consisting of normal, human-derived epidermal keratinocytes (NHEK) which have been cultured to form a multilayered, highly differentiated model of the human epidermis), it was determined that 6-furfurylamino-9-(2-tetrahydropyranyl)purine would be expected to be classified as non-irritating.
# [7] = test system: human subjects; assay: Human Repeated Insult Patch Test; assay type: in vivo; conditions: test gel about 0.1 percent
# Description: Test gel (about 0.2 ml) containing about 0.1 percent 6-furfurylamino-9-(2-tetrahydropyranyl)purine was placed onto a 2 cm square occlusion patch was placed on each subjects back and remained for 24 hours. This procedure was repeated every Monday, Wednesday, and Friday until nine (9) applications had been made on the same area (induction phase). The area was examined before each new application. About 10-14 days after the ninth patch had been removed, a challenge patch (challenge phase) on a new area of the back and then examined 24 and 72 hours thereafter for reactivity. Skin responses were based on a six-point scale (0=no evidence of effect; +=barely perceptible; 1=mild; 2=moderate; 3=marked; and 4=severe).
# Fifty-two (52) subjects completed the induction and challenge phases (total of 10 applications per subject).
smiles,measurement,setting,value
c1coc(CNc2ncnc3c2ncn3C2CCCCO2)c1 (stereo not shown) [6-furfurylamino-9-(2-tetrahydropyranyl)purine],toxicity or other negative effects on survival of cultured human skin fibroblasts,"[1]; 0.01 to 500 μM, 3 days of treatment",No toxicity or other negative effects were apparent
same,short term growth of young human fibroblasts vs untreated,"[1]; 40, 80, and 200 μM",similar
same,percentage of attachment of the cells to the surface of the culture flask,"[1]; 40 to 400 μM, after 6 hours of treatment",not affected
same,short term growth of young human fibroblasts,[1]; about 400 μM,slight decrease in growth of cells
same,cell growth and survival,"[1]; between 1 and 200 μM, 3 days of treatment",slight stimulation of cell growth and survival
same,apoptosis and beta-galactosidase staining (premature senescence),[1]; various doses (0 to 400 μM),no suggestion of induction of apoptosis or premature senescence
same,induction of additional growth or cell division,[1]; young and senescent human skin fibroblasts,No significant induction of additional growth or cell division
same,cell number of senescent cells,"[2]; 0 to 400 μM, after 7 days",No negative effects
same,appearance of the cells (reversion of age-related changes),"[2]; 0 to 400 μM, after 30 days of treatment",younger looking in terms of becoming thinner and arranged in arrays
same,survival of senescent cells,"[2]; 200 μM or more, after 14 days",slight negative effect on the survival of senescent cells
same,actin staining pattern,"[2]; late passage senescent cells, 0 to 200 μM, after three days",changed the actin staining pattern from a highly polymerized pattern to a less polymerized filament pattern
same,cell number of senescent cells,"[2]; lower concentrations (below 200 μM), after 14 days",no negative effects
same,mutagenic responses,[3],no positive mutagenic responses
same,induction of structural and numerical chromosome aberrations,[4],negative for the induction of structural and numerical chromosome aberrations
same,ocular irritation classification,[5],non-irritant
same,RC50 (calculated concentration producing a positive reaction in 50% of treated eggs),"[5]; about 30 minutes, <1% irritant, >3% non-irritant",105%
same,"irritation classification, EpiDerm System",[6],non-irritating
same,"skin responses, six-point scale (0=no evidence of effect; +=barely perceptible; 1=mild; 2=moderate; 3=marked; 4=severe)","[7]; challenge phase, at 24 hours, 52 subjects",only one subject had a barely perceptible rating (+)
same,induced allergic contact dermatitis or other irritation,[7]; induction and challenge phases,No evidence of induced allergic contact dermatitis or other irritation

# Reference: patent publication US20130072505A1, “6,9-Disubstituted Purine Derivatives and Their Use for Treating Skin” (priority 2006, published 2013)
